# Tests used:
# Type in all cases: cell-based
# [1] = tested on: APPs secretion in GSrasDN1 PC12 cells; experiment: APPs secretion from GSrasDN1 PC12 cells (22C11 western blot, densitometry)
# From the text: The GSrasDN1 PC12 subline (Dr. Simon Halegous (State University of New York at Stony Brook)) expressing the dominant inhibitory mutant ras gene, p21^N17 under the control of a dexamethasone-inducible MMTV promoter (mouse mammary tumor virus), obtained as a gift from Dr. Simon Halegoua, (Kremer et al., J. Cell Biol. 115(3):809-819 (1991)) and grown in Dulbecco's modified Eagles' medium (DMEM, GIBCO) containing 5% fetal bovine serum (FBS: v/v) and 10% heat inactivated horse serum (HS, GIBCO).
# RU-486 and NGF were solubilized in dimethylsulfoxide (DMSO). DMSO was used as a control vehicle in all experiments.
# For drug exposure experiments in GSrasDN1 PC12 cells, cells were grown to confluence in 75 cm^2 polypropylene culture flasks from Falcon. Twelve hours prior to drug treatment, the culture medium was aspirated using a pasteur pipette and replaced with 10 ml of DMEM supplemented with 15% charcoal-stripped calf serum (SIGMA) to remove complement, immunoglobulins and endogenous steroid hormones secreted from the cells. Twelve hours later, this supplemental medium was aspirated and replaced with 10 ml of DMEM containing the treatment drugs. Flasks were allotted into the following treatment groups: a) Control and b) RU-486 (3.0 μM). DMSO concentrations were normalized to 0.06% (v/v) in all flasks.
# Twelve hours following drug exposure, the medium was again aspirated and the cells were washed once with 10 ml of phosphate-buffered saline (PBS, SIGMA). Cells were removed from the bottom of the flask by incubating with 1.0 ml of trypsin (GIBCO) for five minutes. […]
# After the fifteen minutes had elapsed, the tubes were placed immediately on ice to stop any reactions and 200 μl of a protease cocktail (100 μM PMSF (phenylmethanesulfonyl fluoride), 5 μg/ml Leupeptin, 5 μg/ml Aprotinin, and 5)μg/ml Pepstatin) was added to each tube. […] The nuclear fraction was pelletted down at 14,000 rpm for ten min. and 5 μl of cellular homogenate was collected for a protein quantification. […]
# [2] = tested on: APPs secretion in wild-type PC12 cells; experiment: APPs secretion from wild-type PC12 cells, fifteen minute exposure
# From the text: Phorbol 12-myristate 13-acetate (PMA) was purchased from LC Service Corp., Woburn, Mass. All other materials were obtained as previously described in Example 1. Wild-type PC12 cells were purchased from the American Type Tissue Culture Collection # CRL-1721 and grown in DMEM with 5% FBS fetal bovine serum and 10% horse serum (GIBCO).
# PC12 cells grown to confluence were pretreated for twelve hours in DMEM supplemented with charcoal-stripped calf serum (SIGMA) as described above. After pretreatment, cells were trypsinized, resuspended, and counted as described above. 10 mls each of 1.0×10^6 cells/ml PC12 cells were aliquoted into 15 ml conical tubes containing the appropriate treatment group. PMA was used as a positive control as previous experiments had shown that such treatment increases APPs release (Buxbaum, J. D. et al., “Processing of Alzheimer β/A4 amyloid precursor protein: Modulation by agents that regulate protein phosphorylation”, Proc. Natl. Acad. Sci. USA 87:6003-6006 (1990); Caporaso, G. L. et al., “Protein phosphorylation regulates secretion of Alzheimer β/A4 amyloid precursor protein”, Proc. Natl. Acad. Sci. USA 89:3055-3059 (1992); Mills, J. and P. B. Reiner, “Phorbol esters but not the cholinergic agonists oxotremorine-M and carbachol increase release of the amyloid precursor protein in cultured rat cortical neurons”, J. Neurochem. 67:1511-1518 (1996), the teachings of which are hereby incorporated by reference). The final percentage of DMSO in all treatment groups was normalized to 0.01% (v/v).
# Treatment groups were as follows: a) Control; b) PMA (0.1 μM); c) RU-486 (0.1 μM). The concentration of (0.1 μM) RU-486 was chosen because it was near the EC50 mark (FIG. 4). 1.0 ml of each treatment group was pipetted into 1.5 eppendorf tubes and incubated at 37° C. in a […] incubator for fifteen minutes. Harvesting and concentration of APPs were performed as described in Example 1. Protein band separation on SDS-PAGE, visualization of bands, and quantification of APPs were also performed as previously described.
# Materials and methods utilized were as outlined above. […]
# [3] = tested on: APPs secretion in KB-3.1 human carcinoma cell line; experiment: APPs secretion from KB-3.1 cells with sub-detectable p-glycoprotein
# Experimental: These cells were grown in DMEM with 10% FBS. All materials and methods are as outlined as above.
# [4] = tested on: APPs secretion in KB-3.1 cells transfected with human MDR1 (p-glycoprotein); experiment: APPs secretion from KB-3.1 cells transiently transfected with pHaMDR1; conditions: 0.1 μM, fifteen minutes, plated cells, transfection efficiency ~10-20%; FIG. 10
# Experimental: KB-3.1 cells were grown as described above. The pHaMDR1 plasmid construct encoding human MDR1 was obtained as a gift from Dr. Ira Pastan (National Cancer Institute).
# For calcium-phosphate transfections, cells were plated onto 10 cm polypropylene petri dishes (Falcon) at a density of 2.0×10^6 cells/dish. To prepare the cDNA for transfection, 15 μg/plate of pHaMDR1 cDNA was mixed together with 1/10 volumes of 3 M sodium Acetate, ˜3× volume of 100% ethanol in a 1.5 ml eppendorf tube and spun in a desktop centrifuge for thirty seconds. The tube was then filled to the top with ethanol and spun at 15,000 rpm at 4° C. for ten minutes. The ethanol was aspirated, leaving a tiny pellet of cDNA on the bottom. In a sterile fumehood, the cDNA was resuspended with 450 μl of 0.1× tris-EDTA(TE) ethylene diamine tetraacetic acid, tris EDTA and 50 μl of 2.5 M CaCl2. 500 μL of 2× BES (50 mM N, N-bis[2 Hydroxyethyl]2-aminoethanesu acid, 280 mM NaCl, 1.5 mM Na2HPO4.2 H2O, pH 6.96) was added to make a final volume of 1.0 ml. The entire mixture was allowed to sit for twenty minutes before adding the contents to the plate of cells. […]
# Exposures were performed without resuspending the cells, in contrast to previous experiments described above. […] 5 μl from each sample was collected for protein quantification. Protein determination and APPs quantification were performed as previously described.
# [5] = RU-486, dexamethasone 0.1 μM, progesterone, desmethoxyverapamil 1 μM, FIG. 7, 8
smiles,measurement,setting,value
"CC#C[C@]1(O)CC[C@H]2[C@@H]3CCC4=CC(=O)CCC4=C3[C@@H](c3ccc(N(C)C)cc3)C[C@@]21C [RU-486, 17β-hydroxy-11β-[4-dimethylaminophenyl]-17α prop-l-ynyl estra-4,9-dien-3 one]",increase in APPs secretion over NGF,"[1]; RU-486 3.0 μM versus NGF 50 ng/ml, FIG. 2",~6 fold
same,increase in APPs secretion over control samples,"[1]; RU-486 3.0 μM, twelve hours exposure, APPs collected fifteen minutes, FIG. 2",~12.5 fold
same,increased APPs secretion,"[1]; at 3.0 μM RU-486, sub-maximal concentration, FIG. 4",~21 fold
"CCCCCCCCCCCCCC(=O)O[C@@H]1[C@@H](C)[C@@]2(O)[C@@H](C=C(CO)C[C@]3(O)C(=O)C(C)=C[C@@H]23)[C@@H]2C(C)(C)[C@]12OC(C)=O [PMA, Phorbol 12-myristate 13-acetate]",effect on APPs secretion,"[2]; 0.1 μM, no drug pretreatment, FIG. 5",increase
same,modulation of APPs secretion,"[3]; cells in suspension, FIG. 9",do not regulate
same,regulation of APPs secretion,"[3]; non-transfected cells exposed while plated, 0.1 μM, fifteen minutes",no regulation
same,regulation of APPs secretion,[4],restored regulation
COc1cccc(CCN(C)CCCC(C#N)(c2ccc(OC)c(OC)c2)C(C)C)c1 (stereo not drawn) [desmethoxyverapamil],effect on APPs secretion,[2]; [5],significantly increased
"CC(=O)[C@H]1CC[C@H]2[C@@H]3CCC4=CC(=O)CC[C@]4(C)[C@H]3CC[C@]12C [progesterone, Progesterone]",effect on APPs secretion,[2]; [5],significantly increased

# Reference: patent US6514686B2, “Method and composition for modulating amyloidosis” (The University of British Columbia, priority 1997, dated 2003)
